Results: patent US20050214738A1, “Conditional allele system” (priority 2003, published 2005)

Tests used:
mutant FRBs = assay: SeAP transcriptional switch assay, panel of FRB mutants at 2095, 2098, 2101; format: cell-based, human; details: Phe at 2101
Protocol: All FRB mutants were prepared by the Quikchange mutagenesis method (Stratagene) using protocols provided by the manufacturer. Briefly, PCR reactions containing the parent plasmid pBJ5-FRB-VP16-HA or pBJ5-FRB*-VP16-HA and overlapping oligonucleotides containing the relevant base changes were performed with Pfu polymerase (Stratagene, San Diego, Calif.). PCR reactions were digested with the methylation sensitive restriction endonuclease Dpn1 to eliminate the parent plasmid and the reaction was transformed in XL10-Gold Ultracompetent E. coli (Stratagene).
Electroporation details are available upon request. Cells were immediately aliquoted to 2 or 3×96 well plates with flat bottoms. […] Data was analysed with Softmax Pro (Molecular Devices), Microsoft Excel and Prism 3 (GraphPad Software).

FKBP-GSK3β-GFP = molecular target: T1, FKBP-GSK3β-GFP (Homo sapiens, UniProt P62942); assay: Sub-cellular localization of FKBP-GSK3β-GFP with FRB(TLW)-NES and FRB(KTF)-NLS in COS1 cells; format: cell-based; details: 10 nM, 1 hour
T1 construct: expressed in transfected cells; host or cells: COS1 cells
T1 sequence (P62942 whole entry): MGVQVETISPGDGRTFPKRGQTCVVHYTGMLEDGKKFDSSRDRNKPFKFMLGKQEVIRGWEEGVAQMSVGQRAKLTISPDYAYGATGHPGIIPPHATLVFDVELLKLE
Protocol: COS1 cells were electroporated with 1 μg pS-FKBP-GSK3β-GFP, 1 μg of the ‘exporter’ pBJ5-FRB(TLW)-Exp-HA containing a nuclear export sequence derived from the rev protein of Human Immunodeficiency Virus and 3 μg of the ‘importer’ pBJ5-FRB(KTF)-Imp with a nuclear localization sequence from SV40 Large T antigen. Cells were plated on autoclaved coverslips and incubated 36 hours followed by 1 hour of rapalog treatment (10 nM). Cells were fixed 10 minutes in 4% paraformaldeyde/PBS at 4° C. and mounted for microscopy with DAPI to visualize the nucleus. Microscopy was perfomed with a Leica confocal microscope and Leica software.

C16-(S)Butylsulfonylrapamycin [C16-BSrap, reference compound]
binding to mutant FRBs with Phe substituted at amino acid 2101 (mutant FRBs): little or no binding
sub-cellular localization of GSK3β (FKBP-GSK3β-GFP): localized to the cytoplasm
